Laboratory results reported in patent US10584127B2, “3,3-difluoropiperidine carbamate heterocyclic compounds as NR2B NMDA receptor antagonists” (Rugen Holdings (Cayman) Limited, priority 2015, dated 2020).

How the values were obtained:
cloned human NR1/NR2A = cloned human NR1/NR2A (Homo sapiens (Human), UniProt Q12879); experiment: NR2A antagonist activity, Fluo-4 calcium influx in HEK293 cells; assay type: cell-based; conditions: glutamate 100 μM, glycine 50 μM
Description: Activation of the NR2A or NR2B subtype of NMDA receptor with glutamate as an agonist and glycine co-agonist on these cells results in calcium influx, which can be monitored with fluorescent indicator Fluo-4.
For experiments, the cells were seeded onto poly-D-lysine-coated 96-well black plates with clear bottom (Corning) at a density of ^˜50,000 cells/well. After overnight culture, the growth medium was removed from the wells and the cells were incubated at 37° C. for 60 min in Hanks buffer containing 4 μM fluo-4-AM (Invitrogen) and 0.1% bovine serum albumin (BSA). After dye-loading, the cells were washed three times with Hanks buffer and incubated for 10 min at room temperature with various concentrations of test compounds prepared in Hanks buffer with 0.1% BSA. The cell plates were placed onto FDSS μCell fluorescence reader (Hamamatsu). After 20 sec reading of background fluorescence, agonist glutamate at final 100 μM and co-agonist glycine at final 50 μM were added to the cells to activate the receptor, and the resulting fluorescence changes were recorded and quantified. Based on the changes in fluorescence intensity, the pharmacological effect of test compounds were analyzed and the IC50 values derived from a non-linear least squares fitting of the concentration-dependent response to a standard logistic equation using Prism (Graphpad, Inc): Amplitude=Max Amplitude/(1+(IC50/[antagonist])^n).

CYP2D6 = CYP2D6 (Homo sapiens (Human), UniProt P10635); experiment: CYP P450 enzyme inhibition, pooled human liver microsome; assay type: in vitro ADME; conditions: HLM, dextromethorphan 5 μM
Sequence of CYP2D6 (P10635 whole entry): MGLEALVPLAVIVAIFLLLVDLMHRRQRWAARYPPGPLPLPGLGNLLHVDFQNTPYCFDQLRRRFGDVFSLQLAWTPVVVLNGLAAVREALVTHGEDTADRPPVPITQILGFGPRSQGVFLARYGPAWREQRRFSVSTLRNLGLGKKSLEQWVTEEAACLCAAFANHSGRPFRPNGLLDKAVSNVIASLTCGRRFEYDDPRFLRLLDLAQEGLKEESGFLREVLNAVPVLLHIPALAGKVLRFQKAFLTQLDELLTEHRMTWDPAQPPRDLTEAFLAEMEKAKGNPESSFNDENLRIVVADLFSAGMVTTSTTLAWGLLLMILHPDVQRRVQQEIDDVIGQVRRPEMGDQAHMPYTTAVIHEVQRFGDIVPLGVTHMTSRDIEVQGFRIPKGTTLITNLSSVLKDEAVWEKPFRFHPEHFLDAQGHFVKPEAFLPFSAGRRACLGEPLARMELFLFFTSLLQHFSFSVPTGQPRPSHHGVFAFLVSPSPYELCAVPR
Description: Those CYP isoforms and their corresponding probe substrates are as follows: CYP1A2 (phenacetin, 30 μM), CYP2C9 (tolutamide, 100 μM), CYP2C19 (S-mephenytoin, 40 μM), CYP2D6 (dextromethorphan, 5 μM) and CYP3A4 (midazolam, 1 μM). All probe substrates were used at concentrations near or below their Kms. For experiment, a reaction mixture of test compound at 10 μM or in serial dilution, CYP probe substrate described above and 0.2 mg/mL pooled HLM in phosphate buffer, pH 7.4 in a final volume of 200 μL was pre-incubated at 37° C. for 10 minutes in triplicate. The reaction was initiated by addition of NADPH at final concentration of 1 mM. The reaction was terminated after 10 minutes (CYP1A2, CYP2D6 and CYP3A4) or 30 minutes (CYP2C9 and CYP2C19) by addition of 100 μL ice-cold acetonitrile with internal standard (IS). The samples were then centrifuged at 13,000 rpm and the supernatants were injected to LC-MS/MS (Agilent Technologies) to quantify the concentration of the specific metabolites of the probe substrates formed by individual CYP450 isoforms. The inhibition ratio is calculated as: (Mt−M0)/Mwater×100% in which Mt and M0 represent the concentrations of the specific probe substrate metabolite, which was formed by individual CYP450 isoform, at the beginning and end of the reaction in the presence of test compound; while Mwater represents the concentration of the specific metabolite at the end of the reaction in the absence of test compound. Test compound concentration-dependent response data experiments performed in triplicate.

[1] = test system: electroconvulsive threshold (tonic convulsions); experiment: Electroconvulsive Threshold Test (ECT); assay type: in vivo, rats; conditions: rats, 3, 10 and 30 mpk p.o., mesylate salt
Description: Rats were administered ECS (rectangular current: 0.6 ms pulse width, 1.5 s duration, 200 Hz) via earclip electrodes connected to a constant current shock generator (Ugo Basile: type 7801). Test compounds were administered by oral gavage (p.o.) 1 hour before the test at a dose volume of 5 mL/kg.
Treatment groups of 20 rats were exposed to ECS as follows: The first animal was exposed to 30 mA of ECS. […] (increases of 5 mA) until the first tonic convulsion was observed. Once the first tonic convulsion was observed, the intensity of ECS was decreased by 2 mA for the next animal and then decreased or increased by 2 mA from animal to animal depending on whether the previous animal convulsed or not. If the first animal did convulse (tonic convulsions) within 5 seconds, animal n°2 is exposed to 25 mA, etc . . . (decreases of 5 mA) until the absence of tonic convulsions was observed. At this point, the intensity of ECS was increased by 2 mA for the next animal and then decreased or increased by 2 mA from animal to animal depending on whether the previous animal convulsed or not. The minimum current intensity applied is 5 mA and the maximum 95 mA. The first 5 animals serve to approach threshold current and were not included in the analysis. The results are presented as the mean current intensity administered to the final 15 animals of a group. The test was performed blind. A positive percent change indicates an anticonvulsant effect. A negative percent change indicates a proconvulsant effect. The test substance was evaluated at 4 doses, typically using 0.5% dimethylsulfoxide, 4% hydroxypropyl-b-cyclodextrin water as a vehicle, and administered p.o. 60 minutes before ECS, and compared with a vehicle control group. Diazepam (16 mg/kg p.o.), administered under the same experimental conditions, was used as reference substance. The experiment included 6 groups. Data with the test substance was analyzed by comparing treated groups with vehicle control using one-way ANOVA followed by Dunnett's t tests.

Sequence of cloned human NR1/NR2A (Q12879 23-1464, other chains not shown): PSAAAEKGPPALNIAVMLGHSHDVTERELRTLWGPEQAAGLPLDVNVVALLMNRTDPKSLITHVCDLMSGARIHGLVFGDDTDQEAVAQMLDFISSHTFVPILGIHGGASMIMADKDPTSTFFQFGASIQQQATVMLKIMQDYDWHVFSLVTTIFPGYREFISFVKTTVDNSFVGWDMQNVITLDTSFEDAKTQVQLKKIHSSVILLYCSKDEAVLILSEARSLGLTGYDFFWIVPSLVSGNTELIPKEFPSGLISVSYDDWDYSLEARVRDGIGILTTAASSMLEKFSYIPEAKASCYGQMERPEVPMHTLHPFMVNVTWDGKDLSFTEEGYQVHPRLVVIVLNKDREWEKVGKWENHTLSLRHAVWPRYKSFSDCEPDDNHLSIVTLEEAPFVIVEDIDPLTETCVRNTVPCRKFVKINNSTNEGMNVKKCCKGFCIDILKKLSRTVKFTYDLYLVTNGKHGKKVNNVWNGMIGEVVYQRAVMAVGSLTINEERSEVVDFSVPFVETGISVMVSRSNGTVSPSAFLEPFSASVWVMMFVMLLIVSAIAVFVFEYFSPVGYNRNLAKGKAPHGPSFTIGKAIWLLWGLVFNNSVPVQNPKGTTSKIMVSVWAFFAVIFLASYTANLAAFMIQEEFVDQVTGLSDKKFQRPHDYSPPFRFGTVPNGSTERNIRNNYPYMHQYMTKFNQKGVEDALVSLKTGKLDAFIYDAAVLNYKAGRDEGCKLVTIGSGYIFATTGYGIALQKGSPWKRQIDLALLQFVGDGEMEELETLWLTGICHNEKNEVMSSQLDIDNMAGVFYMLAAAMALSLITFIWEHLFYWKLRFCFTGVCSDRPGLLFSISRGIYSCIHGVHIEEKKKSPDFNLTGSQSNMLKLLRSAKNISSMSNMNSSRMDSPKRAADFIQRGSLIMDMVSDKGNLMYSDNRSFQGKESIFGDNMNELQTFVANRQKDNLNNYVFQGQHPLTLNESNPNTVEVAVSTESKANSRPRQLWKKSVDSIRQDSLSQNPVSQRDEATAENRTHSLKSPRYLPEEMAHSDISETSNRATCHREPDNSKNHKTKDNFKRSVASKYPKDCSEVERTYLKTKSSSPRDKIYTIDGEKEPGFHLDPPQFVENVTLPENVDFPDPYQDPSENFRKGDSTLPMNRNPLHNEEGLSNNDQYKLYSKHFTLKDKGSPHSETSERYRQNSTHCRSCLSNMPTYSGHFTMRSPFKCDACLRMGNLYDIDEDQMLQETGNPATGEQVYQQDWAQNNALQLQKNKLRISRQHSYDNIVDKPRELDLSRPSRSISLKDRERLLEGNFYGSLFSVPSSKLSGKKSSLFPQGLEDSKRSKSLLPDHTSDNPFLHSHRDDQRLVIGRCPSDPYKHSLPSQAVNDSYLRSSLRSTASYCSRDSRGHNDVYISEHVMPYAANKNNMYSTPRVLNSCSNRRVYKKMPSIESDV

## Cc1ccc(COC(=O)N2CC[C@H](CNc3nccn4cnnc34)C(F)(F)C2)cc1 [Compound E1-1.2, (+)-R-4-methylbenzyl 4-(([1,2,4]triazolo[4,3-a]pyrazin-8-ylamino)methyl)-3,3-difluoropiperidine-1-carboxylate]
Cloned human NR1/NR2A
  IC50: > 10 µM
CYP2D6
  CYP2D6 @ 10 μM (%): 14%
[1]
  activity on electroconvulsive threshold: robust anticonvulsant activity
